Columns and labels:
SARM1 = target: T1, SARM1 (Homo sapiens, UniProt Q6SZW1); experiment: In vitro enzyme inhibition activity (SAM-TIR lysate, NAD/ADPR by HPLC-MS/MS); format: biochemical; conditions: SAM-TIR lysate (SARM1 408-724) from NRK1-HEK293T cells; 25°C, 3 h with NAD
T1 construct: 408-724 expression plasmid and vector-control customized by SinoBio; host or cells: NRK1-HEK293T cells, transient transfection; crude clarified lysate used as the enzyme
T1 sequence (Q6SZW1 408-724 limits assumed): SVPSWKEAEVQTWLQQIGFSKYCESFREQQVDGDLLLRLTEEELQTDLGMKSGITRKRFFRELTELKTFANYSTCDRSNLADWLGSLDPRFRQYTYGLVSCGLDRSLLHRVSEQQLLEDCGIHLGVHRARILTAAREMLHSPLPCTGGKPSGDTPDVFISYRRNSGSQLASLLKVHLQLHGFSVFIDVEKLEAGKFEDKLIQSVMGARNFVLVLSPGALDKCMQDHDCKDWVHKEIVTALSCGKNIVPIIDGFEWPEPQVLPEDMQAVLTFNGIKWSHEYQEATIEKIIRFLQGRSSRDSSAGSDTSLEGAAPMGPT
Method: NRK1-HEK293T cells were seeded at approximately 10 × 10^6 cells/plate into 150 mm culture dishes containing 25 mL of growth medium. […] At the time of transfection, 250 µL of nicotinamide riboside (100 mM) was added to each dish to minimize toxicity from SAM-TIR overexpression. 48 hours after the transfection, the cells were washed three to four times with cold PBS and collected. The cells were resuspended in 0.5 mL of PBS containing protease inhibitors. Cell lysates were prepared by sonication. The lysate was centrifuged at 12500 rpm for 10 min at 4°C to remove cell debris, and protein concentration was determined by bicinchoninic acid (BCA) assay and used to normalize lysate concentration. The aliquots of supernatant were stored at -80°C until use.
• 1) Transfer the compound dilutions into an assay plate by Echo 650; • 2) Add 10µl 2× SAM-TIR lysate to each well; • 3) Seal the assay plate, centrifuge at 1000rpm for 1min, and incubate at 25°C for 30min; • 4) Add 10µl 2× NAD to each well; • 5) Centrifuge at 1000rpm for 1min, and incubate at 25°C for 3h; • 6) Add 40µL trichloroacetic acid to each well to terminate the reaction, mix and shake for 30s, and centrifuge at 4000rpm for 10min; • 7) Take 40µL supernatant from each well and add appropriate amount of ammonia water to adjust the pH; • 8) Detect nicotinamide adenine dinucleotide (NAD) and adenosine diphosphate ribose (ADPR) by HPLC-MS/MS.

[1] = Liver microsomal stability in vitro; format: in vitro ADME; conditions: liver microsomes, NADPH, 37 °C, 0-45 min
Method: 100 mM K-Mg-buffer containing 5 mM MgCl2 was preheated. The spiking solution was prepared by adding 5 µL of 10 mM compound and reference stock solution to 95 µL of acetonitrile (ACN). 1.5 µL of 500 µM spiking solution and 18.75 µL of 20 mg/mL liver microsomes were added to 479.8 µL of K-Mg-buffer. NADPH stock solution (3 mM) was prepared by dissolving NADPH in K-Mg-buffer. 30 µL of 1.5 µM spiking solution containing microsomes was evenly dropped into the assay plate at different time points (0, 5, 15, 30, and 45 min), and pre-incubated at 37 °C for 5 min. At 0 min, 200 µL of ACN containing IS (internal standard, tolbutamid/terfenadine) was added to the wells, then 15 µL of NADPH stock solution (6 mM) was added. For the other time points, the reaction was initiated and timed by adding 15 µL of NADPH stock solution (6 mM) to the wells. The reaction was stopped by adding 200 µL of ACN containing IS to the corresponding plate wells at 5, 15, 30, and 45 min, respectively. After quenching, the plate was shaken at 600 rpm for 10 min and then centrifuged at 4000 rpm for 50 min. 80 µL of supernatant per well was pipetted to a 96-well sample plate containing 160 µL of pure water for UPLC/MS/MS analysis.

Row | Compound | IC50 (SARM1) | half-life [1]
1 | O=C1C(Cc2ccc(Cl)c(F)c2)CCN1c1nc2ccc3cnccc3c2[nH]1 (centres unmarked) [Cpd. 5] | < 150 nM | 
2 | C=C(CCc1ccc(Cl)cc1)C(=O)Nc1nc2ccc3cnccc3c2[nH]1 [Cpd. 11] | > 1000 nM | 
3 | O=C1C(Cc2ccc(Cl)c(F)c2)CCCN1c1nc2ccc3cnccc3c2[nH]1 (centres unmarked) [Cpd. 15] | < 150 nM | 
4 | O=C(CCc1ccc(Cl)cc1)Nc1[nH]nc2c1ccc1cnccc12 [Cpd. 12] | 500 to 1000 nM | 
5 | O=C(CCc1ccc(Cl)c(F)c1)Nc1nc2c(ccc3cnccc32)o1 [Cpd. 22] | 150 to 500 nM | 
6 | O=C(CCc1ccc(Cl)c(F)c1)Nc1nc2c([nH]1)COc1cnccc1-2 [Cpd. 23] | < 150 nM | 37.4 min
7 | O=C1C(Cc2ccc(Cl)c(Cl)c2)CCN1c1nc2ccc3cnccc3c2[nH]1 (centres unmarked) [Cpd. 6] | 150 to 500 nM | 
8 | O=C1C(Cc2ccc(Cl)c(F)c2)CCN1c1nc2ccc3cnccc3c2[nH]1 (single isomer, unassigned) [Cpd. 18] | < 150 nM | 
9 | O=C1C(Cc2cnc(Cl)c(F)c2)CCN1c1nc2ccc3cnccc3c2[nH]1 (centres unmarked) [Cpd. 7] | 150 to 500 nM | 
10 | O=C1C(Cc2cc(F)c(Cl)c(F)c2)CCCN1c1nc2ccc3cnccc3c2[nH]1 (centres unmarked) [Cpd. 14] | < 150 nM | 

Source: EP4741397A1, “FUSED TRICYCLIC COMPOUND, AND PREPARATION METHOD THEREFOR AND USE THEREOF” (Shenzhen Zhongge Biological Technology Co., Ltd., priority 2023, dated 2025)
